Like-named read-outs stand apart in the source and are kept apart here. Positions of bridges follow the written chain, without caps; N, C: chain ends. Non-standard residues stand in square brackets, D forms with d. Residues, ends and D or L forms follow the SMILES beside them. Phe(4-COOH) = N[C@@H](Cc1ccc(C(=O)O)cc1)C(=O)O; 2Pal = N[C@@H](Cc1ccccn1)C(=O)O
Key:
Assay in all cases: cell-based
hNav1.5 = hNav1.5 (Homo sapiens, UniProt Q14524); conditions: IonWorks Quattro, use, […], read-out: IWQ Use Nav1.5
hNav1.7 = hNav1.7 (Homo sapiens, UniProt Q15858); assay type: cell-based; conditions: IonWorks Quattro, use, […], read-out: IWQ Use Nav1.7
Sequence of hNav1.7 (Q15858 whole entry, looked up): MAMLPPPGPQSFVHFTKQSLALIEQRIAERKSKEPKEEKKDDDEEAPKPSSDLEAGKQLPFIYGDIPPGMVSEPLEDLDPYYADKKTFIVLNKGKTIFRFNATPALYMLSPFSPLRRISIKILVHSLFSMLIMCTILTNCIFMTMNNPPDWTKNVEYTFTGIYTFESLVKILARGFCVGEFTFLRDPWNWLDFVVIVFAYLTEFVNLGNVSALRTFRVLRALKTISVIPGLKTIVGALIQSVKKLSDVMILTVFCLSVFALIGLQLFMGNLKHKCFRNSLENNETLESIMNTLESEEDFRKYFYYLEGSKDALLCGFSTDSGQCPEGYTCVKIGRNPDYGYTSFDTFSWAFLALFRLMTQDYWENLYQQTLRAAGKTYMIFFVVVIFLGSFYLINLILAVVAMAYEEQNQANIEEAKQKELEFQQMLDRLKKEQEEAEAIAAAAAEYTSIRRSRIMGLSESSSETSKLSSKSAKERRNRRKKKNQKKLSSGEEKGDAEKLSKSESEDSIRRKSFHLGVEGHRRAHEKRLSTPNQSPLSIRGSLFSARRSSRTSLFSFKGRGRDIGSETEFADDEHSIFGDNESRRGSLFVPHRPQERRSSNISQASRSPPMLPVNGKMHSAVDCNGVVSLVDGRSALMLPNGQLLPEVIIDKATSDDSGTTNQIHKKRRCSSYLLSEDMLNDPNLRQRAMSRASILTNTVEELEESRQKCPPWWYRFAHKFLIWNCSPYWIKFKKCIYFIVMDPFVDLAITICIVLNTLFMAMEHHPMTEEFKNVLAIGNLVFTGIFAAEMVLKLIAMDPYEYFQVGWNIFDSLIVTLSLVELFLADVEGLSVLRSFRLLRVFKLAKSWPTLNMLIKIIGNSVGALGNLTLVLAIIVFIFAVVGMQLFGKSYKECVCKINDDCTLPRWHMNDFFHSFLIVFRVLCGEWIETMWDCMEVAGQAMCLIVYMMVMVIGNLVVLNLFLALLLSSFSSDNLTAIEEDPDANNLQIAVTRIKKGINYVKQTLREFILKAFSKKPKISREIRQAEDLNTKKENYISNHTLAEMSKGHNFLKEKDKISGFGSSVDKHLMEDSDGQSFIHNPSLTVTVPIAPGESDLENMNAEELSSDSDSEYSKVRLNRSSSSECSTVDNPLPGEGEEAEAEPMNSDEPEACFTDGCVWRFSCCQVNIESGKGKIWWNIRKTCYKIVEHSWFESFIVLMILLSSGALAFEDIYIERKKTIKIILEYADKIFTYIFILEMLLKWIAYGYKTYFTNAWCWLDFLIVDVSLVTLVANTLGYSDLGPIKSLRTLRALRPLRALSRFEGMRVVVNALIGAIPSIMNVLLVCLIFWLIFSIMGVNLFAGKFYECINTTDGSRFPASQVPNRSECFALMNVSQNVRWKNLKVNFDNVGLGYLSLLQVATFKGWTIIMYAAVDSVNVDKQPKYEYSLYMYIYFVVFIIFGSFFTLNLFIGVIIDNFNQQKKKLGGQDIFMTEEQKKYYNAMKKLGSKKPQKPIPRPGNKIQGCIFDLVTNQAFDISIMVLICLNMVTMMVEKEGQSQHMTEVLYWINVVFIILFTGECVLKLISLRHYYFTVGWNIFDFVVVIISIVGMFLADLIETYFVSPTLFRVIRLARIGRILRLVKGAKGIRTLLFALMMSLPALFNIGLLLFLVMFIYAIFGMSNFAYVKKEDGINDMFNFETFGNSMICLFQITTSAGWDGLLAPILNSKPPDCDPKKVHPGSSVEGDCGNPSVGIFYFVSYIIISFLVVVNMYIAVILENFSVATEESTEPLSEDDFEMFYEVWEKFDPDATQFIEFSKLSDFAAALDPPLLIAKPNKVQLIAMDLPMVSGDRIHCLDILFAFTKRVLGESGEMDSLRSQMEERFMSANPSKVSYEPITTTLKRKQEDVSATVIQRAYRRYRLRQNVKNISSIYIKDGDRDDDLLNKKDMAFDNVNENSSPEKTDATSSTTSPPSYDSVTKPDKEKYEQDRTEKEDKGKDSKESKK

hNav1.3 = hNav1.3 (Homo sapiens, UniProt Q9NY46); conditions: IonWorks Quattro, use, […], read-out: IWQ Use Nav1.3
Sequence of hNav1.3 (Q9NY46 whole entry, looked up): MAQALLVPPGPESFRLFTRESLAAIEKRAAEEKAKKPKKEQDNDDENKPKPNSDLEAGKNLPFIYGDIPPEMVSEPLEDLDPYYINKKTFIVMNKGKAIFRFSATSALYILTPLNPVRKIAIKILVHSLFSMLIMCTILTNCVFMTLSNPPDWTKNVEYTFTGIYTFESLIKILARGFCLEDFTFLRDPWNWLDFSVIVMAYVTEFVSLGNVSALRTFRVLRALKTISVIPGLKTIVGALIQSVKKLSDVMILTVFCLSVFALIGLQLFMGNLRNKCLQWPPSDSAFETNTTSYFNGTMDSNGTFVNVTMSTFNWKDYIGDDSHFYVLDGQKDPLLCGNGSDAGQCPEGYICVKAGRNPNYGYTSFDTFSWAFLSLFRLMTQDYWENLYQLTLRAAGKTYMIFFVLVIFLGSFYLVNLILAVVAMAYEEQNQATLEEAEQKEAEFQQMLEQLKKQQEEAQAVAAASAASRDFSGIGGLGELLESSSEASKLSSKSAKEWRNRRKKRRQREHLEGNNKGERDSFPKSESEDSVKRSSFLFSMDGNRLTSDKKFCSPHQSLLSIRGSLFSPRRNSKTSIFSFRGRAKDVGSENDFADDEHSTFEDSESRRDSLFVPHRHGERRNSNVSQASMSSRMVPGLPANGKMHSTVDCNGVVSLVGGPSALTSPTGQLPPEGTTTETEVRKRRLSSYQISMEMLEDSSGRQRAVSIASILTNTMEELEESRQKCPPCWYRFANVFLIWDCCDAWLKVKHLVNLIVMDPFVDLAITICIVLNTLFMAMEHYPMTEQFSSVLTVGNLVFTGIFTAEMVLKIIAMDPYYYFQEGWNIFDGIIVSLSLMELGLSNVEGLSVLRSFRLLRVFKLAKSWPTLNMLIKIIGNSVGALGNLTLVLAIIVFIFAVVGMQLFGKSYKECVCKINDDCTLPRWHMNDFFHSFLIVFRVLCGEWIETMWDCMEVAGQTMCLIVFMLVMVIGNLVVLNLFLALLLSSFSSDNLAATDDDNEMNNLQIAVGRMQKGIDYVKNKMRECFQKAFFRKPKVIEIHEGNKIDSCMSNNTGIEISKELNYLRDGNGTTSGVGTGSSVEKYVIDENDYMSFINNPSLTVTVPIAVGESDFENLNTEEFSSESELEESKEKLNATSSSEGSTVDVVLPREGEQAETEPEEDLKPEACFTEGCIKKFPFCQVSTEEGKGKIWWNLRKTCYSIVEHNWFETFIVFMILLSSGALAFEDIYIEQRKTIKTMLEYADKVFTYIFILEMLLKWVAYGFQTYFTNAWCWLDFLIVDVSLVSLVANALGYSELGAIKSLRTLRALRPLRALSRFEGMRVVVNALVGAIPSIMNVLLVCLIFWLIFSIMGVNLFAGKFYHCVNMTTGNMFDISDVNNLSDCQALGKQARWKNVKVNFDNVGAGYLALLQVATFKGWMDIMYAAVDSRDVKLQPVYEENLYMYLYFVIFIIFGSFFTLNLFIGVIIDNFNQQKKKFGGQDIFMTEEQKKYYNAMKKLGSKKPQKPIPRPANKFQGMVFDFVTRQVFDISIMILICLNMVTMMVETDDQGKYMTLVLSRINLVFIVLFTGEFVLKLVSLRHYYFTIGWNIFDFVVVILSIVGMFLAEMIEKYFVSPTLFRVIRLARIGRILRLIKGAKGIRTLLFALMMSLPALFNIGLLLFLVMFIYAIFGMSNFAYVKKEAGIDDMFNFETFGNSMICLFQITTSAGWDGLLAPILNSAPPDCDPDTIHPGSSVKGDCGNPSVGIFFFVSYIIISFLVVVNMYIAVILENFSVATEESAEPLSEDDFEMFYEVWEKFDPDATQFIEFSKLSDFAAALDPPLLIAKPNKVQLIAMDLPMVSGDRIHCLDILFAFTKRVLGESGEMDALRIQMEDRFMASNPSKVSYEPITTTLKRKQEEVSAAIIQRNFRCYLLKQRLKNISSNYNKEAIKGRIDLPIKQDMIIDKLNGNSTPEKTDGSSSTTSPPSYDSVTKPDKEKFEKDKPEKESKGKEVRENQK

Compound	IC50 (hNav1.5; Table 22) [µM]	IC50 (hNav1.7; Table 22) [µM]	IC50 (hNav1.3; Table 22) [µM]	IC50 (hNav1.5; Table 23) [µM]	IC50 (hNav1.7; Table 23) [µM]	IC50 (hNav1.3; Table 23) [µM]
CC[C@H](C)[C@@H]1NC(=O)[C@@H]2CSSC[C@@H]3NC(=O)[C@H](C(C)C)NC(=O)[C@H](CC(C)C)NC(=O)[C@H](CC(N)=O)NC(=O)[C@@H]4CCCN4C(=O)[C@H](CCCNC(=N)N)NC(=O)[C@H](CSSC[C@H](NC(=O)[C@@H](N)CC(=O)O)C(=O)N[C@@H](CC(C)C)C(=O)NCC(=O)N[C@@H](Cc4ccccc4)C(=O)N[C@@H](CCSC)C(=O)N[C@@H](CCCNC(=N)N)C(=O)N[C@@H](CCCCN)C(=O)N2)NC(=O)[C@H](CSSC[C@@H](C(=O)N[C@@H](CCCCN)C(=O)N[C@@H](Cc2ccc(O)cc2)C(=O)N[C@H](C(=O)N[C@@H](Cc2ccccc2)C(N)=O)C(C)C)NC(=O)[C@H](Cc2c[nH]c4ccccc24)NC(=O)[C@H](CCCCN)NC(=O)[C@H](Cc2c[nH]cn2)NC(=O)[C@@H]2CCCN2C(=O)[C@H](CCCNC(=N)N)NC(=O)[C@H](CO)NC3=O)NC(=O)[C@H](CCCCN)NC(=O)[C@H](CC(=O)O)NC(=O)[C@H](CC(N)=O)NC(=O)[C@H](CC(=O)O)NC(=O)[C@@H]2CCCN2C1=O [compound 345] (H-DCLGFMRKCIPDNDKCCRPNLVCSRPHKWCKYVF-NH2; disulfide 2-17, 9-23, 16-30)	6.65	0.18	0.16			
CC[C@H](C)[C@@H]1NC(=O)[C@@H]2CSSC[C@@H]3NC(=O)[C@H](C(C)C)NC(=O)[C@H](CC(C)C)NC(=O)[C@H](CC(N)=O)NC(=O)[C@@H]4CCCN4C(=O)[C@H](CCCNC(=N)N)NC(=O)[C@H](CSSC[C@H](NC(=O)[C@@H](N)CC(=O)O)C(=O)N[C@@H](CC(C)C)C(=O)NCC(=O)N[C@@H](Cc4ccccc4)C(=O)N[C@@H](CCSC)C(=O)N[C@@H](CCCNC(=N)N)C(=O)N[C@@H](CCCCN)C(=O)N2)NC(=O)[C@H](CSSC[C@@H](C(=O)N[C@@H](CCCCN)C(=O)N[C@@H](Cc2ccc(O)cc2)C(=O)N[C@H](C(=O)N[C@@H](Cc2ccccc2)C(N)=O)C(C)C)NC(=O)[C@H](Cc2c[nH]c4ccccc24)NC(=O)[C@H](CCCCN)NC(=O)[C@H](Cc2c[nH]cn2)NC(=O)[C@H](CCSC)NC(=O)[C@H](CCCNC(=N)N)NC(=O)[C@H](CO)NC3=O)NC(=O)[C@H](CCCCN)NC(=O)[C@H](CC(=O)O)NC(=O)[C@H](CC(N)=O)NC(=O)[C@H](CC(=O)O)NC(=O)[C@@H]2CCCN2C1=O [compound 346] (H-DCLGFMRKCIPDNDKCCRPNLVCSRMHKWCKYVF-NH2; disulfide 2-17, 9-23, 16-30)	4.24	0.04	0.02			
CC[C@H](C)[C@@H]1NC(=O)[C@@H]2CSSC[C@@H]3NC(=O)[C@H](C(C)C)NC(=O)[C@H](CC(C)C)NC(=O)[C@H](CC(N)=O)NC(=O)[C@@H]4CCCN4C(=O)[C@H](CCCNC(=N)N)NC(=O)[C@H](CSSC[C@H](NC(=O)[C@@H](N)CC(=O)O)C(=O)N[C@@H](CC(C)C)C(=O)NCC(=O)N[C@@H](Cc4ccccc4)C(=O)N[C@@H](CCSC)C(=O)N[C@@H](CCCNC(=N)N)C(=O)N[C@@H](CCCCN)C(=O)N2)NC(=O)[C@H](CSSC[C@@H](C(=O)N[C@@H](CCCCN)C(=O)N[C@@H](Cc2ccc(O)cc2)C(=O)N[C@H](C(=O)N[C@@H](Cc2ccccc2)C(N)=O)C(C)C)NC(=O)[C@H](Cc2c[nH]c4ccccc24)NC(=O)[C@H](CCCCN)NC(=O)[C@H](Cc2c[nH]cn2)NC(=O)[C@H](CC(=O)O)NC(=O)[C@H](CCCNC(=N)N)NC(=O)[C@H](CO)NC3=O)NC(=O)[C@H](CCCCN)NC(=O)[C@H](CC(=O)O)NC(=O)[C@H](CC(N)=O)NC(=O)[C@H](CC(=O)O)NC(=O)[C@@H]2CCCN2C1=O [compound 347] (H-DCLGFMRKCIPDNDKCCRPNLVCSRDHKWCKYVF-NH2; disulfide 2-17, 9-23, 16-30)	14.1	0.96	0.64			
CC[C@H](C)[C@@H]1NC(=O)[C@H](CCCNC(=N)N)NC(=O)[C@H](CO)NC(=O)[C@@H]2CSSC[C@@H]3NC(=O)[C@H](CCCCN)NC(=O)[C@H](CCCNC(=N)N)NC(=O)[C@H](CCSC)NC(=O)[C@H](Cc4ccccc4)NC(=O)CNC(=O)[C@H](CC(C)C)NC(=O)[C@@H](NC(=O)[C@@H](N)CC(=O)O)CSSC[C@H](NC(=O)[C@H](CSSC[C@@H](C(=O)N[C@@H](CCCCN)C(=O)N[C@@H](Cc4ccc(O)cc4)C(=O)N[C@H](C(=O)N[C@@H](Cc4ccccc4)C(N)=O)C(C)C)NC(=O)[C@H](Cc4c[nH]c5ccccc45)NC(=O)[C@H](CCCCN)NC(=O)[C@H](Cc4c[nH]cn4)NC1=O)NC(=O)[C@H](CCCCN)NC(=O)[C@H](CC(=O)O)NC(=O)[C@H](CC(N)=O)NC(=O)[C@H](CC(=O)O)NC(=O)[C@@H]1CCCN1C(=O)[C@H]([C@@H](C)CC)NC3=O)C(=O)N[C@@H](CCCNC(=N)N)C(=O)N1CCC[C@H]1C(=O)N[C@@H](CC(N)=O)C(=O)N[C@@H](CC(C)C)C(=O)N[C@@H](C(C)C)C(=O)N2 [compound 348] (H-DCLGFMRKCIPDNDKCCRPNLVCSRIHKWCKYVF-NH2; disulfide 2-17, 9-23, 16-30)	8.15	0.05	0.03			
CC[C@H](C)[C@@H]1NC(=O)[C@@H]2CSSC[C@@H]3NC(=O)[C@H](C(C)C)NC(=O)[C@H](CC(C)C)NC(=O)[C@H](CC(N)=O)NC(=O)[C@@H]4CCCN4C(=O)[C@H](CCCNC(=N)N)NC(=O)[C@H](CSSC[C@H](NC(=O)[C@@H](N)CC(=O)O)C(=O)N[C@@H](CC(C)C)C(=O)NCC(=O)N[C@@H](Cc4ccccc4)C(=O)N[C@@H](CCSC)C(=O)N[C@@H](CCCNC(=N)N)C(=O)N[C@@H](CCCCN)C(=O)N2)NC(=O)[C@H](CSSC[C@@H](C(=O)N[C@@H](CCCCN)C(=O)N[C@@H](Cc2ccc(O)cc2)C(=O)N[C@H](C(=O)N[C@@H](Cc2ccccc2)C(N)=O)C(C)C)NC(=O)[C@H](Cc2c[nH]c4ccccc24)NC(=O)[C@H](CCCCN)NC(=O)[C@H](Cc2c[nH]cn2)NC(=O)[C@H](Cc2ccccn2)NC(=O)[C@H](CCCNC(=N)N)NC(=O)[C@H](CO)NC3=O)NC(=O)[C@H](CCCCN)NC(=O)[C@H](CC(=O)O)NC(=O)[C@H](CC(N)=O)NC(=O)[C@H](CC(=O)O)NC(=O)[C@@H]2CCCN2C1=O [compound 349] (H-DCLGFMRKCIPDNDKCCRPNLVCSR[2Pal]HKWCKYVF-NH2; disulfide 2-17, 9-23, 16-30)	10.6	0.26	0.06			
CC[C@H](C)[C@@H]1NC(=O)[C@@H]2CSSC[C@@H]3NC(=O)[C@H](C(C)C)NC(=O)[C@H](CC(C)C)NC(=O)[C@H](CC(N)=O)NC(=O)[C@@H]4CCCN4C(=O)[C@H](CCCNC(=N)N)NC(=O)[C@H](CSSC[C@H](NC(=O)[C@@H](N)CC(=O)O)C(=O)N[C@@H](CC(C)C)C(=O)NCC(=O)N[C@@H](Cc4ccccc4)C(=O)N[C@@H](CCSC)C(=O)N[C@@H](CCCNC(=N)N)C(=O)N[C@@H](CCCCN)C(=O)N2)NC(=O)[C@H](CSSC[C@@H](C(=O)N[C@@H](CCCCN)C(=O)N[C@@H](Cc2ccc(O)cc2)C(=O)N[C@H](C(=O)N[C@@H](Cc2ccccc2)C(N)=O)C(C)C)NC(=O)[C@H](Cc2c[nH]c4ccccc24)NC(=O)[C@H](CCCCN)NC(=O)[C@H](Cc2c[nH]cn2)NC(=O)[C@H](Cc2ccc(C(=O)O)cc2)NC(=O)[C@H](CCCNC(=N)N)NC(=O)[C@H](CO)NC3=O)NC(=O)[C@H](CCCCN)NC(=O)[C@H](CC(=O)O)NC(=O)[C@H](CC(N)=O)NC(=O)[C@H](CC(=O)O)NC(=O)[C@@H]2CCCN2C1=O [compound 350] (H-DCLGFMRKCIPDNDKCCRPNLVCSR[Phe(4-COOH)]HKWCKYVF-NH2; disulfide 2-17, 9-23, 16-30)	6.46	0.4	2.62			
CC[C@H](C)[C@@H]1NC(=O)[C@@H]2CSSC[C@@H]3NC(=O)[C@H](C(C)C)NC(=O)[C@H](CC(C)C)NC(=O)[C@H](CC(N)=O)NC(=O)[C@@H]4CCCN4C(=O)[C@H](CCCNC(=N)N)NC(=O)[C@H](CSSC[C@H](NC(=O)[C@@H](N)CC(=O)O)C(=O)N[C@@H](CC(C)C)C(=O)NCC(=O)N[C@@H](Cc4ccccc4)C(=O)N[C@@H](CCSC)C(=O)N[C@@H](CCCNC(=N)N)C(=O)N[C@@H](CCCCN)C(=O)N2)NC(=O)[C@H](CSSC[C@@H](C(=O)N[C@@H](CCCCN)C(=O)N[C@@H](Cc2ccc(O)cc2)C(=O)N[C@H](C(=O)N[C@@H](Cc2ccccc2)C(N)=O)C(C)C)NC(=O)[C@H](Cc2c[nH]c4ccccc24)NC(=O)[C@H](CCCCN)NC(=O)[C@H](Cc2ccc(C(=O)O)cc2)NC(=O)[C@H]([C@@H](C)O)NC(=O)[C@H](CCCNC(=N)N)NC(=O)[C@H](CO)NC3=O)NC(=O)[C@H](CCCCN)NC(=O)[C@H](CC(=O)O)NC(=O)[C@H](CC(N)=O)NC(=O)[C@H](CC(=O)O)NC(=O)[C@@H]2CCCN2C1=O [compound 351] (H-DCLGFMRKCIPDNDKCCRPNLVCSRT[Phe(4-COOH)]KWCKYVF-NH2; disulfide 2-17, 9-23, 16-30)				6.65	15.4	8.41
CC[C@H](C)[C@@H]1NC(=O)[C@@H]2CSSC[C@@H]3NC(=O)[C@H](C(C)C)NC(=O)[C@H](CC(C)C)NC(=O)[C@H](CC(N)=O)NC(=O)[C@@H]4CCCN4C(=O)[C@H](CCCNC(=N)N)NC(=O)[C@H](CSSC[C@H](NC(=O)[C@@H](N)CC(=O)O)C(=O)N[C@@H](CC(C)C)C(=O)NCC(=O)N[C@@H](Cc4ccccc4)C(=O)N[C@@H](CCSC)C(=O)N[C@@H](CCCNC(=N)N)C(=O)N[C@@H](CCCCN)C(=O)N2)NC(=O)[C@H](CSSC[C@@H](C(=O)N[C@@H](CCCCN)C(=O)N[C@@H](Cc2ccc(O)cc2)C(=O)N[C@H](C(=O)N[C@@H](Cc2ccccc2)C(N)=O)C(C)C)NC(=O)[C@H](Cc2c[nH]c4ccccc24)NC(=O)[C@H](CCCCN)NC(=O)[C@H](Cc2ccccn2)NC(=O)[C@H]([C@@H](C)O)NC(=O)[C@H](CCCNC(=N)N)NC(=O)[C@H](CO)NC3=O)NC(=O)[C@H](CCCCN)NC(=O)[C@H](CC(=O)O)NC(=O)[C@H](CC(N)=O)NC(=O)[C@H](CC(=O)O)NC(=O)[C@@H]2CCCN2C1=O [compound 352] (H-DCLGFMRKCIPDNDKCCRPNLVCSRT[2Pal]KWCKYVF-NH2; disulfide 2-17, 9-23, 16-30)				7.82	0.09	0.05
